Laboratory results from patent US11815435B2, “Beta glucan immunopharmacodynamics” (HiberCell, Inc., priority 2017, dated 2023).
Entries after “also recorded” stand apart in the source; their conditions may differ.

How the values were obtained:
[1] = system: MIP-1b, IP-10, IL-1 RA and I-TAC; experiment: Example 1: cytokine levels in the cancer subject; assay type: in vivo, human
Procedure: Cytokine levels were also measured during the immunotherapy treatment. […] In addition, less frequent dosing is more convenient and economical for the subject.

[2] = system: innate immune activation marker genes; experiment: Gene expression in whole blood (Quantigeneplex); assay type: in vivo, human; details: 3 hr post-infusion vs. pre-dose, no premedications
Description: Whole blood was collected in PaxGene blood collection tubes (BD Biosciences) at various time points pre- and post-PGG administration. RNA was isolated and assayed by Quantigeneplex (Affymetrix) and the relative fold changes were log 2 transformed. Data presented are from subjects treated with PGG without premedications.

[3] = Adverse events after a single dose of IV PGG without premedication; assay type: in vivo, human
Procedure: (§1) IPD changes induced by yeast soluble β-glucan were evaluated in a Phase I healthy donor trial, which included three cohorts of 12 healthy human volunteers aged 18-65 years. In Cohort 1, subjects were administered a single dose of 4 mg/kg yeast soluble β-glucan by IV infusion over 2-3 hours. In Cohort 2, subjects were administered 4 mg/kg PGG by IV infusion over 2-3 hours once weekly for 3 weeks. Half of the subjects received premedications which included low dose corticosteroids (4 mg of dexamethasone, PO) and low-dose H1 antagonists (50 mg diphenhydramine.
In Cohort 3, subjects received either 2 mg/kg PGG or 4 mg/kg PGG by IV infusion over 1-2 hours. The subjects were administered either dose of PGG once weekly for 2 weeks, then given a 2 week wash out (no PGG) and finally received one more dose of PGG (week 5). Adverse events and complete blood counts were evaluated. In addition, whole blood and serum was evaluated for the following at various time points post-infusion: PGG binding to immune cells (monocytes, neutrophils, B-cells, DC subsets), complement activation (C5a and Sc5b9), serum cytokine/chemokine levels, IgG ABA levels, flow cytometry of immune cells, circulating immune complex formation and Quantigene analysis of transcriptional profile. Table 1 lists each subject's pre-dose IgG ABA levels, PGG dose and whether they received premedications.
Adverse events were evaluated for subjects after a single dose of IV PGG. Table 2 lists ABA levels and adverse events for subjects that had not received premedication prior to PGG infusion.

IL-8, MCP-1, MIP-1β = experiment: Cytokine and chemokine serum levels (multiplex, Luminex) after IV PGG; assay type: in vivo, human
Procedure: as §1
Subjects were stratified/classified into subgroups based on pre-infusion ABA levels. ABA cutoff levels were selected based on prior studies and are only exemplary. Classification may include only 2 subgroups based on an IgG ABA cutoff level of 15 μg/ml, 20 μg/ml, 25, μg/ml, 30 μg/ml, 35 μg/ml, 40 μg/ml, 45 μg/ml or 50 μg/ml. Classification may also include 3, 4, 5 or more subgroups with each subgroup corresponding to a specific IgG ABA level range. For example, a 3 subgroup classification may include a Low-ABA subgroup encompassing ABA level ranges of <15 μg/ml, <20 μg/ml, <25 μg/ml or <30 μg/ml, a Mid-ABA subgroup encompassing a range having a low end ABA level of 20 μg/ml, 25 μg/ml, 30 μg/ml, 35 μg/ml, 40 μg/ml or 45 μg/ml and a high end ABA level of 30 μg/ml, 35 μg/ml, 40 μg/ml, 45 μg/ml, 50 μg/ml or 55 μg/ml, and a High-ABA subgroup encompassing ABA level ranges of >35 μg/ml, >40 μg/ml, >45 μg/ml, >50 μg/ml, >55 μg/ml, >60 μg/ml, >65 μg/ml or >70 μg/ml. […] Serum and cellular IPD markers were analyzed pre-infusion, 15 minutes, 30 minutes and 1 hour post-infusion, end of infusion (EOI) and 1 hour, 2 hours, 3 hours, 4 hours, 24 hours, 48 hours and 168 hours after EOI.
Cytokine and chemokine serum levels were measured using Novex magnetic multiplex assay (Life Technologies) the Luminex XMAP technology. […]
The effect of premedications on IPD responses was also evaluated. […]

[4] = system: neutrophils, monocytes, B cells and subsets of dendritic cells (DC); experiment: In vivo immune cell binding by flow cytometry from whole blood at EOI; set-up: species or system human; details: High-ABA subjects, anti-PGG MAb staining
Procedure: In vivo immune cell binding was assessed by flow cytometry from whole blood of subjects dosed with PGG at the EOI. Gates were set based on BFDPV staining (anti-PGG MAb) on blood cells prior to infusion.

[5] = system: circulating immune complexes (CIC); experiment: Circulating immune complex (CIC) formation in serum by ELISA after IV PGG; assay type: in vivo, human; details: single dose PGG IV, at EOI
Procedure: as §1
Subjects were stratified/classified into subgroups based on pre-infusion ABA levels. ABA cutoff levels were selected based on prior studies and are only exemplary. Classification may include only 2 subgroups based on an IgG ABA cutoff level of 15 μg/ml, 20 μg/ml, 25, μg/ml, 30 μg/ml, 35 μg/ml, 40 μg/ml, 45 μg/ml or 50 μg/ml. Classification may also include 3, 4, 5 or more subgroups with each subgroup corresponding to a specific IgG ABA level range. For example, a 3 subgroup classification may include a Low-ABA subgroup encompassing ABA level ranges of <15 μg/ml, <20 μg/ml, <25 μg/ml or <30 μg/ml, a Mid-ABA subgroup encompassing a range having a low end ABA level of 20 μg/ml, 25 μg/ml, 30 μg/ml, 35 μg/ml, 40 μg/ml or 45 μg/ml and a high end ABA level of 30 μg/ml, 35 μg/ml, 40 μg/ml, 45 μg/ml, 50 μg/ml or 55 μg/ml, and a High-ABA subgroup encompassing ABA level ranges of >35 μg/ml, >40 μg/ml, >45 μg/ml, >50 μg/ml, >55 μg/ml, >60 μg/ml, >65 μg/ml or >70 μg/ml. As discussed in International Published Application No. WO2015084732A1, various ABA cutoff levels may be used for reasons such as differences in soluble β-glucan immunotherapy treatments and preferences regarding inclusiveness and exclusiveness of subgroups. […] Serum and cellular IPD markers were analyzed pre-infusion, 15 minutes, 30 minutes and 1 hour post-infusion, end of infusion (EOI) and 1 hour, 2 hours, 3 hours, 4 hours, 24 hours, 48 hours and 168 hours after EOI.
Total CIC formation was measured in serum by ELISA (Quidel).

## β(1,6)-[poly-(1,3)-D-glucopyranosyl]-poly-β(1,3)-D-glucopyranose [PGG]
[1]; cancer subject after conversion to High-ABA group, IMPRIME PGG 4 mg/kg once every 3 weeks
  cytokine levels (MIP-1b, IP-10, IL-1 RA, I-TAC): acute IPD responses were seen
[1]; cancer subject, soluble β-glucan administered once every 3 weeks (SC5b-9 and cytokines)
  recurrence of acute IPD responses: robust, acute IPD responses occurred with each administration
[2]
  expression of innate immune activation marker genes: consistently increased in subjects with higher levels of ABA
[3]; no premedication
  adverse events vs ABA level: more adverse events occurred as ABA levels increased
  infusion reaction-related adverse events (CARPA): observed in some, but not all, subjects with ABA levels>20 ug/ml
[3]; subject 002, pre-dose ABA 34.4, no premedication
  Adverse Events (CTCAE grade): None
[3]; subject 004, pre-dose ABA 39.7, no premedication
  Adverse Events (CTCAE grade): None
[3]; subject 006, pre-dose ABA 127, no premedication
  Adverse Events (CTCAE grade): Gr 1 chills; also recorded: Gr 2 nausea/emesis; also recorded: Gr 2 chest pressure
[3]; subject 010, pre-dose ABA 177.9, no premedication
  Adverse Events (CTCAE grade): Gr 1 back pain; also recorded: Gr 2 chest pressure; also recorded: Gr 2 nausea
[3]; subject 016, pre-dose ABA 27.6, no premedication
  Adverse Events (CTCAE grade): Gr 1 headache
[3]; subject 022, pre-dose ABA 87.8, no premedication
  Adverse Events (CTCAE grade): Gr 1 chest pressure; also recorded: Gr 1 light headedness; also recorded: Gr 1 abdominal cramping; also recorded: Gr 2 myalgia
[3]; subject 025, pre-dose ABA 9.9, no premedication
  Adverse Events (CTCAE grade): None
[3]; subject 034, pre-dose ABA 68.0, no premedication
  Adverse Events (CTCAE grade): Gr 1 chest pressure; also recorded: Gr 1 warm sensation; also recorded: Gr 1 light headedness; also recorded: Gr 1 nausea; also recorded: Gr 1 hand paresthesia; also recorded: Gr 2 chills; also recorded: Gr 3 headache
[3]; subject 037, pre-dose ABA 10.4, no premedication
  Adverse Events (CTCAE grade): None
[3]; subject 039, pre-dose ABA 13.6, no premedication
  Adverse Events (CTCAE grade): Gr 1 headache; also recorded: Gr 1 drowsiness
[3]; subject 043, pre-dose ABA 32.6, no premedication
  Adverse Events (CTCAE grade): Gr 2 headache
[3]; subject 047, pre-dose ABA 33.6, no premedication
  Adverse Events (CTCAE grade): None
[3]; subject 055, pre-dose ABA 56.2, no premedication
  Adverse Events (CTCAE grade): Gr 1 nausea; also recorded: Gr 1 flushing; also recorded: Gr 2 chest pressure; also recorded: Gr 2 dyspnea; also recorded: Gr 2 low back pain; also recorded: Gr 2 headache (delayed); also recorded: Gr 2 back pain (delayed); also recorded: Gr 2 neck/shoulder
[3]; subject 057, pre-dose ABA 37.3, no premedication
  Adverse Events (CTCAE grade): Gr 1 diarrhea
[3]; subject 058, pre-dose ABA 34.0, elevated pre-dose CIC, no premedication
  Adverse Events (CTCAE grade): Gr 1 dysuria (delayed); also recorded: Gr 2 myalgia (delayed); also recorded: Gr 2 arthralgia
[3]; subject 067, pre-dose ABA 15.0, no premedication
  Adverse Events (CTCAE grade): Gr 1 LE stiffness
[3]; subject 068, pre-dose ABA 26.1, no premedication
  Adverse Events (CTCAE grade): None
[3]; subject 070, pre-dose ABA 58.7, no premedication
  Adverse Events (CTCAE grade): Gr 1 headache
IL-8, MCP-1, MIP-1β; Mid-ABA and High-ABA subjects, dexamethasone and diphenhydramine premedication vs none
  PGG-mediated cytokine induction (IL-8) with premedications: dampened
IL-8, MCP-1, MIP-1β; pre-dose to end of infusion, healthy subjects
  increases in cytokine and chemokine serum levels, especially IL-8 and MCP-1: consistently detected
IL-8, MCP-1, MIP-1β; two High-ABA subjects, weekly dosing, after week 2 infusion
  acute IPD response in IL-8, MCP-1 and MIP-1 levels: acute IPD response was seen
[4]
  in vivo immune cell binding: bound to neutrophils, monocytes, B cells and subsets of dendritic cells (DC)
[5]; High-ABA subjects
  increase in CIC: the highest increase in CIC
[5]; Low-ABA subjects
  increase in CIC: little increase in CIC
[5]; Mid-ABA subjects
  increase in CIC: a greater increase in CIC
